Test results: ChEMBL document CHEMBL2150993, “Substituted thiazoles VII. Synthesis and antitumor activity of certain 2-(substituted amino)-4-phenyl-1,3-thiazole analogs” (2012)

How the values were obtained:
Type in all cases: functional
Conditions in all cases: at 10 µM
[1] = test system: SW-620; test: Growth inhibition of human SW620 cells after 48 hrs by cell counting analysis
[2] = test system: CAKI-1; test: Growth inhibition of human Caki1 cells after 48 hrs by cell counting analysis
[3] = test system: SK-MEL-5; test: Growth inhibition of human SK-MEL-5 cells after 48 hrs by cell counting analysis
[4] = test system: IGROV-1; test: Growth inhibition of human IGROV1 cells after 48 hrs by cell counting analysis
[5] = test system: SK-MEL-2; test: Growth inhibition of human SK-MEL-2 cells after 48 hrs by cell counting analysis
[6] = test system: M14; test: Growth inhibition of human M14 cells after 48 hrs by cell counting analysis
[7] = test system: RPMI-8226; test: Growth inhibition of human RPMI8226 cells after 48 hrs by cell counting analysis
[8] = test system: UO-31; test: Growth inhibition of human UO31 cells after 48 hrs by cell counting analysis
[9] = test system: NCI-H522; test: Growth inhibition of human NCI-H522 cells after 48 hrs by cell counting analysis
[10] = test system: NCI-H226; test: Growth inhibition of human NCI-H226 cells after 48 hrs by cell counting analysis
[11] = test system: OVCAR-3; test: Growth inhibition of human OVCAR3 cells after 48 hrs by cell counting analysis
[12] = test system: K562; test: Growth inhibition of human K562 cells after 48 hrs by cell counting analysis
[13] = test system: T47D; test: Growth inhibition of human T47D cells after 48 hrs by cell counting analysis
[14] = test system: HL-60; test: Growth inhibition of human HL60 cells after 48 hrs by cell counting analysis
[15] = test system: OVCAR-4; test: Growth inhibition of human OVCAR4 cells after 48 hrs by cell counting analysis
[16] = test system: HCT-116; test: Growth inhibition of human HCT116 cells after 48 hrs by cell counting analysis
[17] = Growth inhibition of human NCI-322M cells after 48 hrs by cell counting analysis
[18] = test system: HCC 2998; test: Growth inhibition of human HCC2998 cells after 48 hrs by cell counting analysis
[19] = test system: MCF7; test: Growth inhibition of human MCF7 cells after 48 hrs by cell counting analysis
[20] = test system: SK-MEL-28; test: Growth inhibition of human SK-MEL-28 cells after 48 hrs by cell counting analysis
[21] = test system: RXF 393; test: Growth inhibition of human RXF393 cells after 48 hrs by cell counting analysis
[22] = test system: SF-268; test: Growth inhibition of human SF268 cells after 48 hrs by cell counting analysis
[23] = test system: NCI-H23; test: Growth inhibition of human NCI-H23 cells after 48 hrs by cell counting analysis
[24] = test system: HOP-92; test: Growth inhibition of human HOP92 cells after 48 hrs by cell counting analysis
[25] = test system: OVCAR-5; test: Growth inhibition of human OVCAR5 cells after 48 hrs by cell counting analysis
[26] = test system: SN12C; test: Growth inhibition of human SN12C cells after 48 hrs by cell counting analysis
[27] = test system: SK-OV-3; test: Growth inhibition of human SKOV3 cells after 48 hrs by cell counting analysis
[28] = test system: OVCAR-8; test: Growth inhibition of human OVCAR8 cells after 48 hrs by cell counting analysis
[29] = test system: TK-10; test: Growth inhibition of human TK10 cells after 48 hrs by cell counting analysis
[30] = test system: MDA-MB-468; test: Growth inhibition of human MDA-MB-468 cells after 48 hrs by cell counting analysis
[31] = test system: LOX IMVI; test: Growth inhibition of human LOXIMVI cells after 48 hrs by cell counting analysis
[32] = test system: SF-295; test: Growth inhibition of human SF295 cells after 48 hrs by cell counting analysis
[33] = test system: SNB-19; test: Growth inhibition of human SNB19 cells after 48 hrs by cell counting analysis
[34] = test system: MDA-MB-435; test: Growth inhibition of human MDA-MB-435 cells after 48 hrs by cell counting analysis
[35] = test system: UACC-257; test: Growth inhibition of human UACC257 cells after 48 hrs by cell counting analysis
[36] = test system: U-251; test: Growth inhibition of human U251 cells after 48 hrs by cell counting analysis
[37] = test system: MDA-MB-231; test: Growth inhibition of human MDA-MB-231 cells after 48 hrs by cell counting analysis
[38] = test system: SF-539; test: Growth inhibition of human SF539 cells after 48 hrs by cell counting analysis
[39] = test system: HT-29; test: Growth inhibition of human HT-29 cells after 48 hrs by cell counting analysis
[40] = Growth inhibition of human NCI-ADR-RES cells after 48 hrs by cell counting analysis
[41] = test system: HOP-62; test: Growth inhibition of human HOP62 cells after 48 hrs by cell counting analysis
[42] = test system: Malme-3M; test: Growth inhibition of human MALME-3M cells after 48 hrs by cell counting analysis
[43] = test system: CCRF-CEM; test: Growth inhibition of human CCRF-CEM cells after 48 hrs by cell counting analysis
[44] = test system: A549; test: Growth inhibition of human A549 cells after 48 hrs by cell counting analysis
[45] = test system: PC-3; test: Growth inhibition of human PC3 cells after 48 hrs by cell counting analysis
[46] = test system: MOLT-4; test: Growth inhibition of human MOLT4 cells after 48 hrs by cell counting analysis
[47] = test system: HCT-15; test: Growth inhibition of human HCT15 cells after 48 hrs by cell counting analysis
[48] = test system: SNB-75; test: Growth inhibition of human SNB75 cells after 48 hrs by cell counting analysis
[49] = test system: SR; test: Growth inhibition of human SR cells after 48 hrs by cell counting analysis
[50] = test system: ACHN; test: Growth inhibition of human ACHN cells after 48 hrs by cell counting analysis
[51] = test system: BT-549; test: Growth inhibition of human BT549 cells after 48 hrs by cell counting analysis
[52] = test system: EKVX; test: Growth inhibition of human EKVX cells after 48 hrs by cell counting analysis
[53] = test system: KM12; test: Growth inhibition of human KM12 cells after 48 hrs by cell counting analysis
[54] = test system: UACC-62; test: Growth inhibition of human UACC62 cells after 48 hrs by cell counting analysis

## Cc1ccc(-c2csc(NC(=O)CN3CCN(C)CC3)n2)cc1
[1]
  growth inhibition (GI): <10%
[2]
  growth inhibition (GI): 12%
[3]
  growth inhibition (GI): <10%
[4]
  growth inhibition (GI): <10%
[5]
  growth inhibition (GI): <10%
[6]
  growth inhibition (GI): <10%
[7]
  growth inhibition (GI): <10%
[8]
  growth inhibition (GI): 19.9%
[9]
  growth inhibition (GI): <10%
[10]
  growth inhibition (GI): <10%
[11]
  growth inhibition (GI): <10%
[12]
  growth inhibition (GI): 11.4%
[13]
  growth inhibition (GI): <10%
[14]
  growth inhibition (GI): <10%
[15]
  growth inhibition (GI): <10%
[16]
  growth inhibition (GI): <10%
[17]
  growth inhibition (GI): <10%
[18]
  growth inhibition (GI): <10%
[19]
  growth inhibition (GI): 12.7%
[20]
  growth inhibition (GI): <10%
[21]
  growth inhibition (GI): <10%
[22]
  growth inhibition (GI): <10%
[23]
  growth inhibition (GI): <10%
[24]
  growth inhibition (GI): <10%
[25]
  growth inhibition (GI): <10%
[26]
  growth inhibition (GI): 10.4%
[27]
  growth inhibition (GI): <10%
[28]
  growth inhibition (GI): <10%
[29]
  growth inhibition (GI): <10%
[30]
  growth inhibition (GI): <10%
[31]
  growth inhibition (GI): <10%
[32]
  growth inhibition (GI): <10%
[33]
  growth inhibition (GI): <10%
[34]
  growth inhibition (GI): <10%
[35]
  growth inhibition (GI): <10%
[36]
  growth inhibition (GI): <10%
[37]
  growth inhibition (GI): 34.2%
[38]
  growth inhibition (GI): <10%
[39]
  growth inhibition (GI): <10%
[40]
  growth inhibition (GI): <10%
[41]
  growth inhibition (GI): <10%
[42]
  growth inhibition (GI): <10%
[43]
  growth inhibition (GI): <10%
[44]
  growth inhibition (GI): <10%
[45]
  growth inhibition (GI): <10%
[46]
  growth inhibition (GI): 13.4%
[47]
  growth inhibition (GI): <10%
[48]
  growth inhibition (GI): 42.2%
[49]
  growth inhibition (GI): <10%
[50]
  growth inhibition (GI): <10%
[51]
  growth inhibition (GI): 12.8%
[52]
  growth inhibition (GI): <10%
[53]
  growth inhibition (GI): <10%
[54]
  growth inhibition (GI): <10%

## CN1CCN(CCC(=O)Nc2nc(-c3ccc(Cl)cc3)cs2)CC1
[1]
  growth inhibition (GI): <10%
[2]
  growth inhibition (GI): 24.2%
[3]
  growth inhibition (GI): 46.1%
[4]
  growth inhibition (GI): 18.4%
[5]
  growth inhibition (GI): <10%
[6]
  growth inhibition (GI): 15.2%
[7]
  growth inhibition (GI): 17.6%
[8]
  growth inhibition (GI): 48.6%
[9]
  growth inhibition (GI): 31.1%
[10]
  growth inhibition (GI): 28%
[11]
  growth inhibition (GI): <10%
[12]
  growth inhibition (GI): 22.4%
[13]
  growth inhibition (GI): 28.8%
[14]
  growth inhibition (GI): 20.6%
[15]
  growth inhibition (GI): <10%
[16]
  growth inhibition (GI): 13.3%
[17]
  growth inhibition (GI): <10%
[18]
  growth inhibition (GI): 13.3%
[19]
  growth inhibition (GI): 28%
[20]
  growth inhibition (GI): <10%
[21]
  growth inhibition (GI): 47.4%
[22]
  growth inhibition (GI): 14.2%
[23]
  growth inhibition (GI): 11.2%
[24]
  growth inhibition (GI): 42.2%
[25]
  growth inhibition (GI): <10%
[26]
  growth inhibition (GI): 32.9%
[27]
  growth inhibition (GI): <10%
[28]
  growth inhibition (GI): 15.6%
[29]
  growth inhibition (GI): 20.2%
[30]
  growth inhibition (GI): 62.8%
[31]
  growth inhibition (GI): 12.8%
[32]
  growth inhibition (GI): <10%
[33]
  growth inhibition (GI): 19.7%
[34]
  growth inhibition (GI): 15.4%
[35]
  growth inhibition (GI): <10%
[36]
  growth inhibition (GI): 16.5%
[37]
  growth inhibition (GI): 25.6%
[38]
  growth inhibition (GI): 14.8%
[39]
  growth inhibition (GI): 23.8%
[40]
  growth inhibition (GI): 21.9%
[41]
  growth inhibition (GI): 19.7%
[42]
  growth inhibition (GI): 15.4%
[43]
  growth inhibition (GI): 18.3%
[44]
  growth inhibition (GI): <10%
[45]
  growth inhibition (GI): 15.3%
[46]
  growth inhibition (GI): 51.8%
[47]
  growth inhibition (GI): 18.1%
[48]
  growth inhibition (GI): 26.8%
[49]
  growth inhibition (GI): <10%
[50]
  growth inhibition (GI): <10%
[51]
  growth inhibition (GI): 29.1%
[52]
  growth inhibition (GI): 11.9%
[53]
  growth inhibition (GI): <10%
[54]
  growth inhibition (GI): 15%

## O=C(CCN1CCN(c2ccccc2)CC1)Nc1nc(-c2ccc(Cl)cc2)cs1
[1]
  growth inhibition (GI): <10%
[2]
  growth inhibition (GI): <10%
[3]
  growth inhibition (GI): 10.1%
[4]
  growth inhibition (GI): <10%
[5]
  growth inhibition (GI): <10%
[6]
  growth inhibition (GI): <10%
[7]
  growth inhibition (GI): 25.4%
[8]
  growth inhibition (GI): 38.6%
[9]
  growth inhibition (GI): 18.7%
[10]
  growth inhibition (GI): 14.1%
[11]
  growth inhibition (GI): <10%
[12]
  growth inhibition (GI): 21.6%
[13]
  growth inhibition (GI): <10%
[14]
  growth inhibition (GI): 19.6%
[15]
  growth inhibition (GI): <10%
[16]
  growth inhibition (GI): 19.4%
[17]
  growth inhibition (GI): 27.8%
[18]
  growth inhibition (GI): <10%
[19]
  growth inhibition (GI): 10.9%
[20]
  growth inhibition (GI): <10%
[21]
  growth inhibition (GI): <10%
[22]
  growth inhibition (GI): <10%
[23]
  growth inhibition (GI): 13.7%
[24]
  growth inhibition (GI): 23.7%
[25]
  growth inhibition (GI): <10%
[26]
  growth inhibition (GI): 11.9%
[27]
  growth inhibition (GI): <10%
[28]
  growth inhibition (GI): <10%
[29]
  growth inhibition (GI): <10%
[30]
  growth inhibition (GI): <10%
[31]
  growth inhibition (GI): <10%
[32]
  growth inhibition (GI): 24.2%
[33]
  growth inhibition (GI): <10%
[34]
  growth inhibition (GI): <10%
[35]
  growth inhibition (GI): <10%
[36]
  growth inhibition (GI): <10%
[37]
  growth inhibition (GI): <10%
[38]
  growth inhibition (GI): <10%
[39]
  growth inhibition (GI): 18.6%
[40]
  growth inhibition (GI): <10%
[41]
  growth inhibition (GI): <10%
[42]
  growth inhibition (GI): <10%
[43]
  growth inhibition (GI): 16.3%
[44]
  growth inhibition (GI): 12%
[45]
  growth inhibition (GI): 12%
[46]
  growth inhibition (GI): 36.3%
[47]
  growth inhibition (GI): <10%
[48]
  growth inhibition (GI): 14.9%
[49]
  growth inhibition (GI): <10%
[50]
  growth inhibition (GI): <10%
[51]
  growth inhibition (GI): <10%
[52]
  growth inhibition (GI): <10%
[53]
  growth inhibition (GI): <10%
[54]
  growth inhibition (GI): 20.5%
